Peptide text beside a SMILES is read from it.
Columns and labels:
[1] = biological target: T1, PfSR10 (Plasmodium falciparum, UniProt Q8I5P8); assay: GloSensor-cAMP assay, inhibition of forskolin-induced cAMP in PfSR10-overexpressing HEK293 cells; format: cell-based; conditions: for Fsk-induced cAMP level elevation (in words): PfSR10-overexpressing HEK293 cells, concentration-dependent
Experimental: (§1) To examine the constitutive activity of PfSR10, we transfected HEK293 cells with different concentrations of the receptor, including PfSR10, ADGRG2, ADGRG3. For measuring the anti-malarial drugs, bradykinin or des-Arg9-bradykinin-induced inhibition of forskolin-stimulated cAMP level in HEK293 cells or COS-7 cells, the receptor encoding plasmid (PfSR10 or its mutants) or empty plasmid (pcDNA3.1) was co-transfected with the GloSensor plasmid and incubated in an incubator at 37°C with 5% CO2 for 24 h. The transfected cells were then inoculated on 96-well plates (at a density of 4 × 10^4 / well) and incubated in incubators under the same conditions for another 24 hours. Cells were precultured with serum-free medium (Gibco) containing 5% DILUTED GloSensor™cAMP reagent Reserve solution (Progema) for 2 h. The base cAMP signal was directly measured using a multimode tablet reader (PerkinElmer Envision). At the same time, the cAMP signal induced by DHA, PIP-TT, PQ, CQ bradykinin or des-Arg9-bradykinin was detected after adding agonists into the corresponding Wells. Finally, the s-shaped dose response function in GraphPad Prism 7.0 was used to analyze the data.

[2] = biological target: T1, PfSR10; assay: FlAsH-BRET assay of PfSR10 extracellular conformational changes; format: cell-based
Experimental: To characterize the binding properties of different ligands (CQ, DHA, PIP-TT, PQ, bradykinin or des-Arg9-bradykinin) to PfSR10, a FlAsH BRET assay was performed as previously described.[29]^,[32]^,[49] We seeded HEK293 cells or COS-7 cells in 6-well plate were transfected with PfSR10 FlAsH BRET sensors (S1 to S6 as indicated in Figure 4B) and incubated for 48 h at 37°C in 5% CO2. The overexpressed PfSR10 sensors cells were washed with FlAsH BRET buffer (25 mM HEPES, 1 mM CaCl2, 140 mM NaCl, 2.7 mM KCl, 0.9 mM MgCl2, 0.37 mM NaH2PO4, 5.5 mM D-glucose, 12 mM NaHCO3) and incubated with 2.5 μM FlLAsH EDT2 (pre-diluted in FLAsH BRET buffer) for 40min at 37°C in 5% CO2. The cells were washed twice, resuspended with FlAsH BRET buffer, and seeded into a 96-well plate at a density of 5x10^4 per well. After adding increasing concentrations of ligand (CQ, DHA, PIP-TT, PQ, bradykinin or des-Arg9-bradykinin) together with luciferase substrate coelenterazine-h (5 μM), the BRET signals between Nluc (440-480 nm) and FlAsH fluorescent moiety (525-585 nm) emissions were examined by a Mithras LB 940 Multimode Microplate Reader.

[3] = biological target: PbSR10 (Plasmodium berghei, UniProt A0A509AUP3); assay: Gi protein trimer dissociation assay in HEK293 cells overexpressing PbSR10; format: cell-based
Chain of PbSR10 (A0A509AUP3 entry or part of it): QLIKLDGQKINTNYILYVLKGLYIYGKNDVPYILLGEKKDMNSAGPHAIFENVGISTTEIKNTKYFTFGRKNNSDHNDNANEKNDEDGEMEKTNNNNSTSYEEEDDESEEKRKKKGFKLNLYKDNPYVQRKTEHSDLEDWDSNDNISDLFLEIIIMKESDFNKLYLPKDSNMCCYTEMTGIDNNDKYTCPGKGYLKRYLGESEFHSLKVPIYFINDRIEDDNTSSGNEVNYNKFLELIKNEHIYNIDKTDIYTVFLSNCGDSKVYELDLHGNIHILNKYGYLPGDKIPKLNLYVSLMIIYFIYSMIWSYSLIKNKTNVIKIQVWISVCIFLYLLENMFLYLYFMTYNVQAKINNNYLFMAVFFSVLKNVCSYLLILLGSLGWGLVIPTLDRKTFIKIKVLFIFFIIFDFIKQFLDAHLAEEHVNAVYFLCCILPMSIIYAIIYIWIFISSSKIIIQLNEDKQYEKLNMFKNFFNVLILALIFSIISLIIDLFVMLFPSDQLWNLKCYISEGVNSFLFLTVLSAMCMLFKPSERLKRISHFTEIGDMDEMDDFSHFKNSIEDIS

[4] = biological target: T1, PfSR10; assay: Gi1-Gγ dissociation BRET assay in PfSR10-overexpressing HEK293 cells; format: cell-based; conditions: for Gi1 coupling with PfSR10 (in words): G protein dissociation assay
Text: (§2) To characterize the G protein signalling properties of PfSR10, G protein BRET probes were generated according to previous publication.[50] The Gqo BRET probes were generated by replacing the six amino acids of the C- terminus of Gq -RlucII with those from GoA1, creating a chimeric Gqo-RlucII subunit.[51] HEK293 cells or COS-7 cells were co-transfected with PfSR10 and various G protein probes (Gi, Gq and Gqo). Forty-eight hours post-transfection, cells were washed twice with HBSS, resuspended with HBSS buffer, and seeded into a 96-well plate at a density of 5x10^4 per well. After adding increasing concentrations of ligand (CQ, DHA, PIP-TT, PQ, Bradykinin, des-Arg9-bradykinin, bradykinin-Arg-FITC, FITC-bradykinin) together with luciferase substrate coelenterazine 400a (5 μM, Cayman), the BRET signals between […] (440-480 nm) and GFP2 (510 nm) emissions were examined by a Mithras LB 940 Multimode Microplate Reader (Berthold Technologies). The BRET signal was calculated as the ratio of the GFP2 emission to Nluc emission.

[5] = biological target: T1, PfSR10; assay: Gq-Gγ dissociation BRET assay in PfSR10-overexpressing HEK293 cells; format: cell-based
Text: as §2

[6] = biological target: PySR10 (Plasmodium yoelii, UniProt V7PQD6); assay: Gi dissociation assay in HEK293 cells overexpressing PySR10; format: cell-based; conditions: read-out: Gi activity EC50 downstream of PySR10
Chain of PySR10 (V7PQD6 entry or part of it): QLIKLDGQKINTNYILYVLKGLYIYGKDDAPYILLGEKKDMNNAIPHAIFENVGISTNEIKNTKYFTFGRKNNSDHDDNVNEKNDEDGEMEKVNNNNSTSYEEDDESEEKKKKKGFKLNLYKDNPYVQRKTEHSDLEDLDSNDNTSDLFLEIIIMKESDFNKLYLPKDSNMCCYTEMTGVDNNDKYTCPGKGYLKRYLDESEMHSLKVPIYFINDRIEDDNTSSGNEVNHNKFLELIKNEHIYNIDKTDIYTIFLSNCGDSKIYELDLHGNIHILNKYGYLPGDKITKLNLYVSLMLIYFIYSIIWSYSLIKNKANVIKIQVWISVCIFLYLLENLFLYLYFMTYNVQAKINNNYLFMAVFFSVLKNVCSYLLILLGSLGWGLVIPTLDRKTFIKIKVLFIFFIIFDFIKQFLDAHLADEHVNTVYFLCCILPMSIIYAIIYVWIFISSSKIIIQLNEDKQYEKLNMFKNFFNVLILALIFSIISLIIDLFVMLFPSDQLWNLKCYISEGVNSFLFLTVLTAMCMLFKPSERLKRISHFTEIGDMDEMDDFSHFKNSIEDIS

[7] = biological target: PcSR10 (Plasmodium chabaudi, UniProt A0A4V0KCI5); assay: Gi dissociation assay in HEK293 cells overexpressing PcSR10; format: cell-based; conditions: read-out: Gi activity EC50 downstream of PcSR10
Chain of PcSR10 (A0A4V0KCI5 entry or part of it): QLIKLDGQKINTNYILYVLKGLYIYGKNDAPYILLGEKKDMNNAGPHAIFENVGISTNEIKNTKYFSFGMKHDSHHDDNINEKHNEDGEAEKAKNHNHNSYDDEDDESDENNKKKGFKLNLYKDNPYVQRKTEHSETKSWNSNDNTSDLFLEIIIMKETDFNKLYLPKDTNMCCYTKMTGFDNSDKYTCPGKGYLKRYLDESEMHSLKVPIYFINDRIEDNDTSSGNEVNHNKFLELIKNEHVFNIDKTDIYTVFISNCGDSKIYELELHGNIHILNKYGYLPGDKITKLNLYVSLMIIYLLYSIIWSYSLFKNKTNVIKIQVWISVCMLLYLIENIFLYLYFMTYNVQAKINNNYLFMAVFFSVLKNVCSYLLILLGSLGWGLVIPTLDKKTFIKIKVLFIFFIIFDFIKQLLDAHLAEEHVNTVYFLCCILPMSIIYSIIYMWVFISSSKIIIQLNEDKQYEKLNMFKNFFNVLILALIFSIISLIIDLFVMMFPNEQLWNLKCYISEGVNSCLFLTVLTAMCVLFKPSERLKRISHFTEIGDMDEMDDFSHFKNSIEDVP

[8] = biological target: T1, PfSR10; assay: cAMP inhibition in PfSR10-overexpressing COS-7 cells; format: cell-based; conditions: read-out: EC50 in COS-7 cell
Experimental: as §1

[9] = biological target: PcSR10 (SR10 of Plasmodium chabaudi) (Plasmodium chabaudi)
[10] = biological target: PySR10 (SR10 of Plasmodium yoelii) (Plasmodium yoelii)

T1 sequence (Q8I5P8 entry or part of it): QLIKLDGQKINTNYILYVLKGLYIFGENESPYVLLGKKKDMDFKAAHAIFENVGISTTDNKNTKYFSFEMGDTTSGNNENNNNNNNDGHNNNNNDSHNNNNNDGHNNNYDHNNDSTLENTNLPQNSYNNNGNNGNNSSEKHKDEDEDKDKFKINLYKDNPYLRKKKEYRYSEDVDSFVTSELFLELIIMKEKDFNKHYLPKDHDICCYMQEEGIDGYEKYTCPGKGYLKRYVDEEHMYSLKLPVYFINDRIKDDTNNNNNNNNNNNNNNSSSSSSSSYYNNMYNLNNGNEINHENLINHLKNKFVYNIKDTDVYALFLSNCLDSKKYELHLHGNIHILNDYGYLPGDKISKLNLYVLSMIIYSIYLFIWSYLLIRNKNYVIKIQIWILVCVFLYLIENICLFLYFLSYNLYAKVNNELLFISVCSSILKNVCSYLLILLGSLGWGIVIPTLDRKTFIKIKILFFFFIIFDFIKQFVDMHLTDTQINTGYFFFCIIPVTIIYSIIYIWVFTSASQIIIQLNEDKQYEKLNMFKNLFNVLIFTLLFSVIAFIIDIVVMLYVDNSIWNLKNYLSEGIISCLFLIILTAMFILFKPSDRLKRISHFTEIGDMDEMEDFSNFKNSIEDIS

With COc1cc(NC(C)CCCN)c2ncccc2c1 (stereo not shown) [PQ, primaquine diphosphate] the EC50 [1] was 17.4 ± 4.77 nM, the “cAMP inhibition Emax” value ([1]; HEK293 cells overexpressing PfSR10, mean ± SEM) was 1.153 ± 0.06 × 10^3 and the “ECL1 movement relative to the PfSR10 N-terminus” value ([2]; concentration-dependent) was “inward movement of ECL1 toward the PfSR10 N-terminus”. The “Gi dissociation downstream of PbSR10” value [3] was “promoted Gi dissociation”.

N=C(N)NCCC[C@H](NC(=O)[C@H](Cc1ccccc1)NC(=O)[C@@H]1CCCN1C(=O)[C@H](CO)NC(=O)[C@H](Cc1ccccc1)NC(=O)CNC(=O)[C@@H]1CCCN1C(=O)[C@@H]1CCCN1C(=O)[C@@H](N)CCCNC(=N)N)C(=O)O [bradykinin] (H-RPPGFSPFR-OH) was tested, and the “Fsk-induced cAMP level elevation (in words)” value [1] was “significantly inhibited”, the “ECL movements of PfSR10 by FlAsH-BRET sensors (kinin peptides)” value [2] was “movement of ECL1 and ECL3 toward the N-terminus and separation of the ECL2 region and N-terminus of PfSR10” and the “Gi1 coupling with PfSR10 (in words)” value [4] was “promoted Gi1 coupling to PfSR10”. For the same molecule, the “Gq dissociation signal (in words)” value ([5]; PfSR10-overexpressing cells) was “remarkable reduction”.

Molecule NC(N)=NCCC[C@H](NC(=O)[C@H](Cc1ccccc1)NC(=O)[C@@H]1CCCN1C(=O)[C@H](CO)NC(=O)[C@H](Cc1ccccc1)NC(=O)CNC(=O)[C@@H]1CCCN1C(=O)[C@@H]1CCCN1C(=O)[C@@H](N)CCCN=C(N)N)C(=O)O [bradykinin] (H-RPPGFSPFR-OH) has an EC50 [1] of 1.82 ± 0.83 nM, an EC50 [6] of 0.67 ± 0.29 nM and an EC50 [4] of 0.38 ± 0.11 nM. The EC50 [7] was 0.15 ± 0.005 nM and the EC50 [5] was 0.53 ± 0.06 nM.

N=C(N)NCCC[C@H](N)C(=O)N1CCC[C@H]1C(=O)N1CCC[C@H]1C(=O)NCC(=O)N[C@@H](Cc1ccccc1)C(=O)N[C@@H](CO)C(=O)N1CCC[C@H]1C(=O)N[C@@H](Cc1ccccc1)C(=O)O [des-Arg9-bradykinin] was tested, and the “Fsk-induced cAMP level elevation (in words)” value [1] was “significantly inhibited”, the “ECL movements of PfSR10 by FlAsH-BRET sensors (kinin peptides)” value [2] was “movement of ECL1 and ECL3 toward the N-terminus and separation of the ECL2 region and N-terminus of PfSR10” and the “Gi1 coupling with PfSR10 (in words)” value [4] was “promoted Gi1 coupling to PfSR10”. For the same molecule, the EC50 [8] was 0.29 ± 0.08 nM.

RPPGFSPFR [bradykinin] was tested, and the EC50 of Gi activity downstream of PcSR10, concentration-dependent [9] was 0.15 nM and the EC50 of Gi activity downstream of PySR10, concentration-dependent [10] was 0.67 nM.

From PMC12639566, “Identification of antimalarial drugs and bradykinin as ligands of the Plasmodium membrane protein PfSR10” (iScience, 2025)
